In patent US4303659A, “Schistosomicidal compositions” (Pfizer Inc., priority 1979, dated 1981):
Like-named read-outs stand apart in the source and are kept apart here.

Test system: Puerto Rican strain of Schistosoma mansoni
Experiment: Effectiveness in treatment of schistosomiasis in infected mice (worm kill after oral dosing, perfusion and liver count 14 days post treatment)
Type: in vivo
Conditions: 336 h, oral gavage
Method: Male mice are infected with 100 cercariae of Schistosoma mansoni and used 8-10 weeks post infection. The test compound(s) are suspended (at the desired concentration level) in a 10% solution of Cremophor EL in 0.2 M phosphate buffer at pH 7.0 (Cremophor EL is the registered trademark name of Badische Anilin und Soda-Fabrik of Ludwigshafen, West Germany for glycerol-polyethylene glycolricinoleate).
The resulting mixture is then administered to the mice by an oral gavage needle, using 0.3 ml. of the above suspension for a 30-gram animal. Fourteen days post treatment, the mice are killed by cervical dislocation and living worms are recovered from the blood vessels by perfusion. The liver is then removed and compressed between two glass plates, and the encapsulated (i.e., dead) worms are counted.
Effective doses required to kill 50% and 99% of male worms (i.e., ED50 and ED99 values, respectively) are calculated from the regression line of the dose response data.

SMILES	ED50 (compound alone, dose to kill 50% of male worms) [mg/kg]	ED99 (compound alone, dose to kill 99% of male worms) [mg/kg]	ED50 (oxamniquine in combination with 25 mg./kg. of praziquantel, 50% of male worms killed) [mg/kg]	ED99 (oxamniquine in combination with 25 mg./kg. of praziquantel, 99% of male worms killed) [mg/kg]	ED50 (compound alone, dose to kill 50% of male worms, read-out: ED50) [mg/kg]	ED50 (praziquantel in combination with 12.5 mg./kg. of oxamniquine, 50% of male worms killed, read-out: ED50) [mg/kg]
CC(C)NCC1CCc2cc(CO)c([N+](=O)[O-])cc2N1 (racemic) [Oxamniquine, dl-6-hydroxymethyl-2-isopropylaminomethyl-7-nitro-1,2,3,4-tetrahydroquinoline]	39	89	8.6	16.6		
O=C(C1CCCCC1)N1CC(=O)N2CCc3ccccc3C2C1 (stereo not drawn) [Praziquantel, 2-cyclohexylcarbonyl-4-oxo-1,2,3,6,7,11b-hexahydro-4H-pyrazino [2,1a]isoquinoline]					156	4.9
